Laboratory results reported in PMC6272317, “Design, Synthesis and Antitubercular Activity of Certain Nicotinic Acid Hydrazides” (Molecules, 2015).
Values after ≈ are worked out from the molar mass of the structure shown. Like-named read-outs stand apart in the source and are kept apart here.

How the values were obtained:
[1] = tested on: M. tuberculosis (RCMB 010126); experiment: microplate Alamar blue assay (MABA), in vitro antimycobacterial activity; type: cell-based, Mycobacterium tuberculosis; conditions: for Mean of Inhibition %: test concentration not stated; for MIC: visual MIC
[2] = tested on: HepG-2 liver cancer cell line; set-up: method as in PMID 25499988; conditions: previous study ref 40, cited from earlier work; for IC50: HepG2, 72 h; for cytotoxicity (in words): HepG2
[3] = tested on: A-549 human lung cancer cell line; set-up: method as in PMID 25499988; conditions: previous study ref 40, cited from earlier work; for IC50: A549, 72 h; for cytotoxicity (in words): A549
[4] = tested on: MCF-7 breast cancer cell line; set-up: method as in PMID 25499988; conditions: previous study ref 40, cited from earlier work; for IC50: MCF-7, 72 h; for cytotoxicity (in words): MCF-7
[5] = tested on: HT-29 colon cancer cell line; experiment: SRB cytotoxicity assay, HT-29; conditions: for IC50: Homo sapiens, HT-29, 72 h; for cytotoxicity (in words): HT-29
[6] = tested on: PC-3 prostate cancer cell line; experiment: SRB cytotoxicity assay, PC-3; conditions: for IC50: 72 h; for cytotoxicity (in words): PC-3
[7] = M. tuberculosis RCMB 010126, MABA
[8] = Mycobacterium tuberculosis, RCMB010126, M. tuberculosis RCMB 010126, MABA, read-out: MIC

| SMILES | Mean of Inhibition % [1, 7] | MIC [1, 8] [µg/mL] | melting point [°C] | further results |
| --- | --- | --- | --- | --- |
| Cc1ccc(-c2ccc(C(=O)NN)c(C)n2)cc1 [Compound 4b] | 36.33 ± 0.58% | 25 (≈ 104 µM) | – | – |
| COc1cccc2c1C(=O)c1c(O)c3c(c(O)c1C2=O)C[C@@](O)(C(=O)CO)C[C@@H]3O[C@H]1C[C@H](N)[C@H](O)[C@H](C)O1 [Doxorubicin, reference compound] | – | – | – | IC50 [2]: 6.9 ± 2.05 µM; IC50 [3]: 7.6 ± 1.37 µM; IC50 [4]: 6.1 ± 1.95 µM; IC50 [5]: 7.3 ± 1.11 µM; IC50 [6]: 6.5 ± 1.07 µM |
| COc1ccc(C=NNC(=O)c2ccc(-c3ccc(Br)cc3)nc2C)cc1 [Compound 7e, 6-(4-Bromophenyl)-N'-(4-methoxybenzylidene)-2-methylnicotinohydrazide] | NA (No Activity (>100 µg/mL)) | > 100 | 251 to 253 | – |
| Cc1nc(-c2ccc(Cl)cc2)ccc1C(=O)NN [Compound 4d] | 12.45 ± 0.58% | 50 (≈ 191 µM) | – | MIC [1, 7]: 100 µg/mL (≈ 382 µM) |
| Cc1nc(-c2ccc(Br)cc2)ccc1C(=O)NN=Cc1ccc(F)cc1 [Compound 7b, 6-(4-Bromophenyl)-N'-(4-fluorobenzylidene)-2-methylnicotinohydrazide] | NA (No Activity (>100 µg/mL)) | > 100 | 252 to 254 | – |
| NNC(=O)c1ccncc1 [Isoniazide, Isoniazid, reference compound] | – | 0.75 (≈ 5.47 µM) | – | – |
| COc1ccc(-c2ccc(C(=O)NN)c(C)n2)cc1OC [Compound 4g, 6-(3,4-Dimethoxyphenyl)-2-methylnicotinohydrazide] | 22.63 ± 0.16% | 50 (≈ 174 µM) | 204 to 205 | – |
| Cc1nc(-c2ccc(Br)cc2)ccc1C(=O)NN=Cc1ccc(Cl)cc1Cl [Compound 7d, 6-(4-Bromophenyl)-N'-(2,4-dichlorobenzylidene)-2-methylnicotinohydrazide] | 13.57 ± 0.72% | 100 (≈ 216 µM) | 269 to 271 | – |
| Cc1nc(-c2ccc(Br)cc2)ccc1C(=O)NN=Cc1ccc(Cl)cc1 [Compound 7c, 6-(4-Bromophenyl)-N'-(4-chlorobenzylidene)-2-methylnicotinohydrazide] | NA (No Activity (>100 µg/mL)) | > 100 | 265 to 267 | – |
| Cc1nc(-c2ccc(Br)cc2)ccc1C(=O)NN=Cc1ccccc1 [Compound 7a, N′-Benzylidene-6-(4-bromophenyl)-2-methylnicotinohydrazide] | NA (No Activity (>100 µg/mL)) | > 100 | 270 to 272 | – |
| Cc1nc(-c2ccc(F)cc2)ccc1C(=O)N/N=C1\C(=O)Nc2ccc(Cl)cc21 [Compound 8b] | 52.63 ± 0.58% | 12.5 (≈ 30.6 µM) | – | IC50 [2]: > 200 µM; cytotoxicity (in words) [2]: devoid of apparent cytotoxicity; MIC [1, 7]: 12.5 µg/mL (≈ 30.6 µM); IC50 [3]: > 200 µM; cytotoxicity (in words) [3]: devoid of apparent cytotoxicity; IC50 [4]: > 200 µM; cytotoxicity (in words) [4]: devoid of apparent cytotoxicity; cytotoxicity (in words) [5]: devoid of apparent cytotoxicity; IC50 [5]: > 200 µM; IC50 [6]: > 200 µM; cytotoxicity (in words) [6]: devoid of apparent cytotoxicity |
| COc1ccc(-c2ccc(C(=O)NN)c(C)n2)cc1 [Compound 4f, 6-(4-Methoxyphenyl)-2-methylnicotinohydrazide] | 42.63 ± 0.16% | 25 (≈ 97.2 µM) | – | – |
| Cc1nc(-c2ccc(Br)cc2)ccc1C(=O)NN [Compound 4e, 6-(4-Bromophenyl)-2-methylnicotinohydrazide] | 20.63 ± 0.63% | 100 (≈ 327 µM) | 213 to 215 | MIC [1, 7]: 50 µg/mL (≈ 163 µM) |
| Cc1nc(-c2ccccc2)ccc1C(=O)NN [Compound 4a] | 42.52 ± 0.63% | 25 (≈ 110 µM) | – | – |
| NC(=O)c1cnccn1 [Pyrazinamid, pyrazinamide, reference compound] | 93.25 ± 0.63% | 3.21 (≈ 26.1 µM) | – | – |
| COc1cc(-c2ccc(C(=O)NN)c(C)n2)cc(OC)c1OC [Compound 4h, 2-Methyl-6-(3,4,5-trimethoxyphenyl)nicotinohydrazide] | 18.32 ± 0.72% | 50 (≈ 158 µM) | – | – |
| Cc1nc(-c2ccc(F)cc2)ccc1C(=O)NN [Compound 4c, 6-(4-fluorophenyl)-2-methylnicotinohydrazide] | NA (No Activity (>100 µg/mL)) | > 100 | – | antimycobacterial activity (in words) ([1]; M. tuberculosis, MABA): complete loss of activity |
| Cc1nc(-c2cccs2)ccc1C(=O)NN [Compound 4i] | 22.63 ± 0.20% | 50 (≈ 214 µM) | – | – |
| Cc1nc(-c2ccc(F)cc2)ccc1C(=O)N/N=C1\C(=O)Nc2ccccc21 [Compound 8a] | 31.44 ± 0.58% | 25 (≈ 66.8 µM) | – | IC50 [2]: > 200 µM; IC50 [3]: > 200 µM; IC50 [4]: > 200 µM; IC50 [5]: > 200 µM; IC50 [6]: > 200 µM |
| Cc1nc(-c2ccc(Br)cc2)ccc1C(=O)NN=Cc1ccc2ccccc2c1 [Compound 7f, 6-(4-Bromophenyl)-2-methyl-N'-(naphthalen-2-ylmethylene)nicotinohydrazide] | 14.32 ± 0.58% | 100 (≈ 225 µM) | 273 to 275 | – |
| Cc1nc(-c2ccc(F)cc2)ccc1C(=O)N/N=C1\C(=O)Nc2ccc(Br)cc21 [Compound 8c] | 77.42 ± 0.93% | 6.25 (≈ 13.8 µM) | – | IC50 [2]: > 200 µM; cytotoxicity (in words) [2]: devoid of apparent cytotoxicity; IC50 [3]: > 200 µM; cytotoxicity (in words) [3]: devoid of apparent cytotoxicity; IC50 [4]: > 200 µM; cytotoxicity (in words) [4]: devoid of apparent cytotoxicity; cytotoxicity (in words) [5]: devoid of apparent cytotoxicity; IC50 [5]: > 200 µM; IC50 [6]: > 200 µM; cytotoxicity (in words) [6]: devoid of apparent cytotoxicity |
